Measurements taken from patent US8748419B2, “Treating obesity with muscarinic receptor M1 antagonists” (priority 2006, dated 2014).

How the values were obtained:
[1] = Reduction in weight gain of rats on a high fat diet (two-week treatment); type: in vivo, Sprague-Dawley rats; conditions: for % Reduction: treatment minus vehicle % weight gain
Experimental: Reduction in Weight Gain: Three- to four-month-old (475-550 grams) male, Sprague-Dawley rats (individually housed) were used to assess compounds for their ability to prevent weight gain. At the onset of chronic experiments, rats had been maintained (ad libitum access) on a “high fat” diet (BioServ Diet #F3282 or Research Diets #12451) for approximately one month. Individual body weights and water consumptions were recorded three times per week throughout the duration of the experiment. After approximately two weeks of data collection, rats were counter-balanced to produce treatment groups with equivalent mean body weights. Under isofluorane-induced anesthesia, rats were surgically implanted (subscapular, subcutaneous [sc] placement) with osmotic mini-pumps (Alzet 2mL2) containing the appropriate drug concentration (based on mean body weights and calculated durations of delivery). Alternatively, for studies using the oral route of administration, rats were dosed by gavage daily over 14 days at a volume of 3 mL/kg. Data collection was continued under drug treatment for approximately two more weeks. Change in body weight (expressed in grams) was calculated for the treatment interval. In this assay, vehicle-treated rats typically gain approximately 35-40 grams (+9%) over the two-week interval. Treatment effects are presented in Table 3 as % Weight Gain=[(Body Weight at End of Drug Infusion−Baseline Body Weight)/Baseline Body Weight]×100%, for both Vehicle and Treatment groups; as well as % Reduction=(% Weight Gain for Treatment group−% Weight Gain for Vehicle group). Body weights throughout the treatment period are presented in FIGS. 11-15 as the percentage of baseline body weight. Similar superscripts in the Dose column of Table 3 denote values derived from the same experiment (to facilitate comparisons between individual treatments and co-administrations). Statistical analyses were performed using a 1-way ANOVA (analysis of variance) followed by a Bonferroni multiple comparison test with the overall alpha set at 0.05. In Table 3, asterisks (*) denote significant effects compared to vehicle-treated rats, while letters (a or b) denote significant effects compared to rats treated with a single compound (“a” for significance from antidepressant and “b” for significance from telenzepine). In Table 3, one symbol denotes p<0.05, two symbols denote p<0.01 and three symbols denote p<0.001). The symbols used for denoting statistical significance may be different in the corresponding figures.

[2] = Appetite suppression: high fat food consumption in fasted rats (4-Hour and 24-Hour Consumption); type: in vivo, Sprague-Dawley rats; conditions: for reduction in effective dose of sibutramine: 30 mg/kg of telenzepine co-administered, effective dose lowered to 1 mg/kg
Excerpt: Appetite Suppression: Three-month-old (300-350 grams) male, Sprague-Dawley rats (individually housed) were used to assess compounds for their appetite suppressant effects. Rats were acclimatized to a “high fat” food diet (BioServ Diet #F3282 or Research Diets #12451) for two weeks prior to testing (access to food and water ad libitum). One day prior to the experiment (at 5:00 PM), food was removed from the cages in order to motivate feeding when the food was returned the following morning (water remained available throughout the experiment). Prior to presentation of the food, rats (n=8-10/dose group) were dosed intraperitoneally (ip) or orally (po) with the compound under investigation, returned to their home cage and immediately given a pre-weighed amount of food. Four hours after administration, the food was removed from the cage, weighed, recorded (4-Hour Consumption) and returned to the rat until the following morning. Twenty-four hours after administration, the remaining food was again weighed and recorded (24-Hour Consumption). Cumulative consumption (expressed in grams) was calculated for both the four and the twenty-four hour intervals. In this assay, vehicle-treated rats typically consume approximately 8 grams over the four-hour interval and approximately 25 grams over the twenty-four-hour interval.
Treatment effects are presented in Table 1 and FIGS. 1-5 (4-Hour Consumption) and Table 2 and FIGS. 6-10 (24-Hour Consumption). The effects are given as both Raw Consumption (in grams ±SEM [1 standard error of the mean]) and as % Reduction in 4-Hour or 24-Hour Consumption=[1-(Consumption following Drug Treatment/Consumption following Vehicle Treatment)]×100%. Similar superscripts in the Dose column of Tables 1 and 2 denote values derived from the same experiment (to facilitate comparisons between individual treatments and co-administrations). Statistical analyses were performed using a 1-way ANOVA (analysis of variance) followed by a Bonferroni multiple comparison test with the overall alpha set at 0.05. In Tables 1 and 2, asterisks (*) denote significant effects compared to vehicle-treated rats, while letters (a or b) denote significant effects compared to rats treated with a single compound (“a” for significance from antidepressant and “b” for significance from telenzepine). In Tables 1 and 2, one symbol denotes p<0.05, two symbols denote p<0.01 and three symbols denote p<0.001). The symbols used for denoting statistical significance may be different in the corresponding figures.

[3] = local microinjection; cited from earlier work
[4] = 24 h, 10 mg/kg po, experiment d

## CN(C)CCCC1(c2ccc(F)cc2)OCc2cc(C#N)ccc21 (stereo not drawn) [Citalopram, citalopram]
[1]; 15 mg/kg sc, experiment a
  Treatment: % Weight Gain: 6.2 ± 1.0%
  % Reduction: −2.4%
[2]; 4 h, 25 mg/kg ip, experiment a
  Treatment Consumption: 5.3 ± 0.72 g/4 Hrs
[2]; 4 h, 25 mg/kg ip, experiment a, 25 mg/kg
  % Reduction in Consumption: 31%
[2]; 4 h, 25 mg/kg ip, experiment a, listed as citalopram, 25 mg/kg
  % Reduction in Consumption: 31%
[2]; 24 h, 25 mg/kg ip, experiment a
  Treatment Consumption: 23.0 ± 0.71 g/24 Hrs
[2]; 24 h, 25 mg/kg ip, experiment a, 25 mg/kg
  % Reduction in Consumption: 4%
[2]; 24 h, 25 mg/kg ip, experiment a, listed as citalopram, 25 mg/kg
  % Reduction in Consumption: 4%

## CC(C)(N)Cc1ccccc1 [Phentermine, phentermine]
[1]; 4 mg/kg sc, experiment c
  Treatment: % Weight Gain: 4.2 ± 0.6%
  % Reduction: −1.1%

## CN[C@H]1CC[C@@H](c2ccc(Cl)c(Cl)c2)c2ccccc21 [Sertraline, sertraline]
[1]; 5 mg/kg sc
  Treatment: % Weight Gain: 7.2 ± 1.2%
  % Reduction: −2.1%
[1]; 10 mg/kg sc
  Treatment: % Weight Gain: 6.0 ± 0.8%
  % Reduction: −3.1%
[1]; 15 mg/kg of sertraline alone
  reduction in body weight compared to vehicle treated rats: 6.8%
[1]; 15 mg/kg sc, experiment b
  Treatment: % Weight Gain: 2.8 ± 0.8%
  % Reduction: −6.8%
[1]; 20 mg/kg sc
  Treatment: % Weight Gain: 2.8 ± 0.7%
  % Reduction: −3.5%
[2]; 4 h, 10 mg/kg ip, experiment a
  Treatment Consumption: 6.0 ± 0.88 g/4 Hrs
[2]; 4 h, 10 mg/kg ip, experiment a, 10 mg/kg
  % Reduction in Consumption: 21%
[2]; 4 h, 10 mg/kg ip, experiment a, listed as sertraline, 10 mg/kg
  % Reduction in Consumption: 21%
[2]; 4 h, 30 mg/kg ip, experiment a
  Treatment Consumption: 5.6 ± 0.73 g/4 Hrs
[2]; 4 h, 30 mg/kg ip, experiment a, 30 mg/kg
  % Reduction in Consumption: 27%
[2]; 4 h, 30 mg/kg ip, experiment a, listed as sertraline, 30 mg/kg
  % Reduction in Consumption: 27%
[2]; 24 h, 10 mg/kg ip, experiment a
  Treatment Consumption: 23.5 ± 0.71 g/24 Hrs
[2]; 24 h, 10 mg/kg ip, experiment a, 10 mg/kg
  % Reduction in Consumption: 2%
[2]; 24 h, 10 mg/kg ip, experiment a, listed as sertraline, 10 mg/kg
  % Reduction in Consumption: 2%
[2]; 24 h, 30 mg/kg ip, experiment a
  Treatment Consumption: 17.1 ± 1.60 g/24 Hrs
[2]; 24 h, 30 mg/kg ip, experiment a, 30 mg/kg
  % Reduction in Consumption: 28%
[2]; 24 h, 30 mg/kg ip, experiment a, listed as sertraline, 30 mg/kg
  % Reduction in Consumption: 28%

## CC(C)CC(N(C)C)C1(c2ccc(Cl)cc2)CCC1 (stereo not drawn) [Sibutramine, sibutramine]
[1]; 0.3 mg/kg po, experiment d
  Treatment: % Weight Gain: 4.7 ± 0.5%
  % Reduction: −1.7%
[1]; 3 mg/kg po
  Treatment: % Weight Gain: −5.7 ± 1.2%
  % Reduction: −6.0%
[1]; given alone
  reduction of weight gain against vehicle treated controls (reduction from baseline): 6%
[2]; 4 h, 1 mg/kg po, experiment c
  % Reduction in Consumption: 0%
  Treatment Consumption: 10.1 ± 1.24 g/4 Hrs
[2]; 4 h, 1 mg/kg po, experiment d
  % Reduction in Consumption: 28%
  Treatment Consumption: 4.9 ± 0.68 g/4 Hrs
[2]; 4 h, 3 mg/kg po, experiment c
  % Reduction in Consumption: 23%
  Treatment Consumption: 8.0 ± 1.29 g/4 Hrs
[2]; 4 h, 3 mg/kg po, experiment d
  % Reduction in Consumption: 54%
  Treatment Consumption: 3.2 ± 0.33 g/4 Hrs
[2]; 4 h, 10 mg/kg po, experiment d
  % Reduction in Consumption: 38%
  Treatment Consumption: 4.3 ± 0.61 g/4 Hrs
[2]; 4 hour consumption
  reduction in effective dose of sibutramine: 3 fold
[2]; 24 h, 1 mg/kg po, experiment c
  % Reduction in Consumption: 10%
  Treatment Consumption: 27.4 ± 1.78 g/24 Hrs
[2]; 24 h, 1 mg/kg po, experiment d
  % Reduction in Consumption: 16%
  Treatment Consumption: 20.7 ± 1.05 g/24 Hrs
[2]; 24 h, 3 mg/kg po, experiment c
  % Reduction in Consumption: 28%
  Treatment Consumption: 21.9 ± 1.98 g/24 Hrs
[2]; 24 h, 3 mg/kg po, experiment d
  % Reduction in Consumption: 38%
  Treatment Consumption: 15.4 ± 1.22 g/24 Hrs
[2]; [4]
  % Reduction in Consumption: 52%
  Treatment Consumption: 11.9 ± 1.15 g/24 Hrs
[2]; 24 hour consumption
  reduction in effective dose of sibutramine: 10 fold
[2]; given alone, oral administration required for a significant reduction
  effect on consumption: effective

## COc1ccc(C(CN(C)C)C2(O)CCCCC2)cc1 (stereo not drawn) [Venlafaxine, venlafaxine]
[1]; 30 mg/kg of venlafaxine alone
  reduction in body weight compared to vehicle treated rats: 0.7%
[1]; 30 mg/kg sc, experiment b
  Treatment: % Weight Gain: 7.4 ± 0.5%
  % Reduction: −0.7%
[2]; 4 h, 30 mg/kg ip, experiment b
  Treatment Consumption: 6.1 ± 0.84 g/4 Hrs
[2]; 4 h, 30 mg/kg ip, experiment b, 30 mg/kg
  % Reduction in Consumption: 13%
[2]; 4 h, 30 mg/kg ip, experiment b, listed as venlafaxine, 30 mg/kg
  % Reduction in Consumption: 13%
[2]; 24 h, 30 mg/kg ip, experiment b
  Treatment Consumption: 24.9 ± 1.52 g/24 Hrs
[2]; 24 h, 30 mg/kg ip, experiment b, 30 mg/kg
  % Reduction in Consumption: 0%
[2]; 24 h, 30 mg/kg ip, experiment b, listed as venlafaxine, 30 mg/kg
  % Reduction in Consumption: 0%

## CN1CCN(CC(=O)N2c3ccccc3C(=O)Nc3cccnc32)CC1 [pirenzepine, 5,11-Dihydro-11-[(4-methyl-1-piperazinyl)acetyl]-6H-pyrido[2,3-b][1,4]benzodiazepin-6-one]
[3]
  dopamine efflux in the striatum: decreased dopamine efflux
